{"source": "patent US20230167101A1", "about": "“NOVEL INHIBITORS OF HISTONE […] P300/CBP FOR CANCER THERAPY” (BAYLOR COLLEGE OF MEDICINE, priority 2020, published 2023)", "key": {"PCAF": {"molecular_target": "T1, PCAF (Homo sapiens, UniProt Q92831)", "T1 construct": "made in house", "T1 sequence (Q92831 whole entry)": "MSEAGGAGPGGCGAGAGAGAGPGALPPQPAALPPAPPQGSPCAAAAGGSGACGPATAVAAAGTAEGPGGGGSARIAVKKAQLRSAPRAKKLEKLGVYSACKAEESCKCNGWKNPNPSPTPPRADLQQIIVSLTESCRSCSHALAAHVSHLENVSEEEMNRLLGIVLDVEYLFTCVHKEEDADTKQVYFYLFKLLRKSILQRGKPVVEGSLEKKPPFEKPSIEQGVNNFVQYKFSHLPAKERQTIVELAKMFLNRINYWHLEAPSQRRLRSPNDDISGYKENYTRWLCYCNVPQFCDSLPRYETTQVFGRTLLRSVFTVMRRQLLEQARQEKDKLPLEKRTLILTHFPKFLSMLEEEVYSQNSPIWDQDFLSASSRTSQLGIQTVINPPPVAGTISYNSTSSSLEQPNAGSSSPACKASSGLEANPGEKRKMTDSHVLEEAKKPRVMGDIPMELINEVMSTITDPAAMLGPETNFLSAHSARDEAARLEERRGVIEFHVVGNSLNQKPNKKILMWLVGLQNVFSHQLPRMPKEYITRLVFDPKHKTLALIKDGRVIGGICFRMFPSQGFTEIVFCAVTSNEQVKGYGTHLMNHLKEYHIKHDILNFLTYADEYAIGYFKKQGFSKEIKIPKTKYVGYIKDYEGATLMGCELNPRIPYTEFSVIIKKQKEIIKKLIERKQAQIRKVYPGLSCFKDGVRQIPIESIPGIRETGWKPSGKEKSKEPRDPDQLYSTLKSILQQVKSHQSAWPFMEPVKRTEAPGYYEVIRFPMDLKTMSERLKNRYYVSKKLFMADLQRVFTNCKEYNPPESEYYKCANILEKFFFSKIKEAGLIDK", "assay": "PCAF HAT inhibition assay", "assay_type": "biochemical", "source_text": "(§1) Humans have three classes of histone/protein lysine acetyltransferases with distinct conserved motifs and structures, including p300/CBP, Gcn5-related N-acetyltransferase (GNAT) and MYST (MOZ, Ybf2, Sas2 and Tip60) family of HATs. […] CBP is a homolog of p300. […] PCAF (p300/CBP associating factor) is a member of the GNAT family, while Myst3 belongs to the MYST family of HATs.\n(§2) The HAT domain (1195-1673) of human p300 was cloned, inserted into pGEX-KG vector and the DNA sequence was verified by sequencing. The p300-HAT expression plasmid was transformed into E. coli BL21-CodonPlus strain (Agilent) and cultured at 37° C. in LB medium containing ampicillin (50 µg/mL) and chloramphenicol (34 µg/mL). After the optical density of the bacterial culture reached ~0.9 at 600 nm, p300 HAT expression was induced by adding 300 µM isopropylthiogalactoside (IPTG) at 18° C. for 48 hours. Cells were collected, lysed, centrifuged for 20 min at 20,000 rpm. The supernatant was subjected to column chromatography with glutathione sepharose resins. The recombinant GST-p300-HAT fusion protein was obtained in ~90% purity (SDS-PAGE) by elution with 10 mM of glutathione solution, which was further purified using a Superdex 200 gel filtration column chromatography. CBP, PCAF and Myst3 HATs were obtained using similar methods.\nTo determine inhibitory activity, a compound with concentrations ranging from 100 nM to 10 µM was incubated with p300-HAT (10 nM) in 20 µL of 50 mM phosphate buffer (pH = 7.0) containing 0.01% Brij-35 for 10 min at 25° C. Histone H3 peptide (1-21) (20 µM) and Acetyl-CoA (1 µM ^3H—Ac—CoA and 19 µM Ac—CoA) were added to initiate the reaction. After 30 min at 25° C., the reaction was stopped by adding 6 N formic acid (5 µL). 20 µL of reaction mixture was then transferred to a small piece of P81 filter paper (Whatman) that binds histone H3 peptide. The filter paper was washed 3x with 50 mM NaHCO3, dried, and transferred into a scintillation vial containing 2 mL of scintillation cocktail. Radioactivity on the filter paper was measured with a Beckman LS-6500 scintillation counter. […]"}, "human CBP HAT": {"molecular_target": "T2, human CBP HAT (Homo sapiens, UniProt Q92793)", "T2 construct": "made in house", "T2 sequence (Q92793 1323-1700 limits assumed)": "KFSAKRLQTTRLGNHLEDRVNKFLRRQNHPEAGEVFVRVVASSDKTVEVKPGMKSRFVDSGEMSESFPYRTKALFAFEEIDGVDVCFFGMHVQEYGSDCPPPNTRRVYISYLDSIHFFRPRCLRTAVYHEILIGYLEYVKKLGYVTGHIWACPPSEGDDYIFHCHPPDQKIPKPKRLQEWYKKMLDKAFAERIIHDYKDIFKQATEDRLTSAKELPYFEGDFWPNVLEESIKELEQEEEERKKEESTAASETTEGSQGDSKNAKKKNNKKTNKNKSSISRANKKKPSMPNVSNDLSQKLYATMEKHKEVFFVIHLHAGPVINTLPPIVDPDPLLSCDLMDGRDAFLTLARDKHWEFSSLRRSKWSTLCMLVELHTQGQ", "assay": "CBP HAT inhibition assay", "assay_type": "biochemical", "conditions": "read-out: IC50 against CBP HAT", "source_text": "as §1\nas §2, with “The recombinant GST-p300-HAT fusion protein was obtained in ~90% purity (SDS-PAGE) by elution with 10 mM of glutathione solution, which was further purified using a Superdex 200 gel filtration column chromatography. CBP, PCAF and Myst3 HATs were obtained using similar methods.” left out\nTo determine inhibitory activity, a compound with concentrations ranging from 100 nM to 10 µM was incubated with p300-HAT (10 nM) in 20 µL of 50 mM phosphate buffer (pH = 7.0) containing 0.01% Brij-35 for 10 min at 25° C. […] Radioactivity on the filter paper was measured with a Beckman LS-6500 scintillation counter. […]"}, "Kasumi-1 leukemia cells": {"system": "Kasumi-1 leukemia cells", "assay": "Cellular histone acetylation, Western blot", "assay_type": "cell-based", "conditions": "Kasumi-1 cells, 12 h, 5 and 10 µM", "procedure": "Kasumi-1 leukemia cells were treated with increasing concentrations of these compounds for 12 h. Histone was extracted and subjected to electrophoresis separation and Western blot staining to determine levels of acetylation at various lysine residues. […] H3K27 seems to be the most sensitive cellular substrate of p300 HAT. […] This might be due to different mode of inhibition or cell permeability for the two compounds.\nAbout 10^6 Kasumi-1 cells per well were incubated with compound 11 at 0, 5 and 10 µM for 12 hours. Histone proteins were extracted using EpiQuik total histone extraction kit (Epigentek), according to the manufacturer’s protocol. Equal amounts of histones (2 µg) were separated on SDS-PAGE and transferred to PVDF membranes. The blots were probed with primary antibodies against H3K9Ac, H3K18Ac, H3K27Ac and H3 (Cell Signaling), followed by anti-rabbit IgG (Thermo Scientific) secondary antibodies."}, "Myst3": {"molecular_target": "T3, Myst3 (Homo sapiens, UniProt Q92794)", "T3 construct": "made in house", "T3 sequence (Q92794 whole entry)": "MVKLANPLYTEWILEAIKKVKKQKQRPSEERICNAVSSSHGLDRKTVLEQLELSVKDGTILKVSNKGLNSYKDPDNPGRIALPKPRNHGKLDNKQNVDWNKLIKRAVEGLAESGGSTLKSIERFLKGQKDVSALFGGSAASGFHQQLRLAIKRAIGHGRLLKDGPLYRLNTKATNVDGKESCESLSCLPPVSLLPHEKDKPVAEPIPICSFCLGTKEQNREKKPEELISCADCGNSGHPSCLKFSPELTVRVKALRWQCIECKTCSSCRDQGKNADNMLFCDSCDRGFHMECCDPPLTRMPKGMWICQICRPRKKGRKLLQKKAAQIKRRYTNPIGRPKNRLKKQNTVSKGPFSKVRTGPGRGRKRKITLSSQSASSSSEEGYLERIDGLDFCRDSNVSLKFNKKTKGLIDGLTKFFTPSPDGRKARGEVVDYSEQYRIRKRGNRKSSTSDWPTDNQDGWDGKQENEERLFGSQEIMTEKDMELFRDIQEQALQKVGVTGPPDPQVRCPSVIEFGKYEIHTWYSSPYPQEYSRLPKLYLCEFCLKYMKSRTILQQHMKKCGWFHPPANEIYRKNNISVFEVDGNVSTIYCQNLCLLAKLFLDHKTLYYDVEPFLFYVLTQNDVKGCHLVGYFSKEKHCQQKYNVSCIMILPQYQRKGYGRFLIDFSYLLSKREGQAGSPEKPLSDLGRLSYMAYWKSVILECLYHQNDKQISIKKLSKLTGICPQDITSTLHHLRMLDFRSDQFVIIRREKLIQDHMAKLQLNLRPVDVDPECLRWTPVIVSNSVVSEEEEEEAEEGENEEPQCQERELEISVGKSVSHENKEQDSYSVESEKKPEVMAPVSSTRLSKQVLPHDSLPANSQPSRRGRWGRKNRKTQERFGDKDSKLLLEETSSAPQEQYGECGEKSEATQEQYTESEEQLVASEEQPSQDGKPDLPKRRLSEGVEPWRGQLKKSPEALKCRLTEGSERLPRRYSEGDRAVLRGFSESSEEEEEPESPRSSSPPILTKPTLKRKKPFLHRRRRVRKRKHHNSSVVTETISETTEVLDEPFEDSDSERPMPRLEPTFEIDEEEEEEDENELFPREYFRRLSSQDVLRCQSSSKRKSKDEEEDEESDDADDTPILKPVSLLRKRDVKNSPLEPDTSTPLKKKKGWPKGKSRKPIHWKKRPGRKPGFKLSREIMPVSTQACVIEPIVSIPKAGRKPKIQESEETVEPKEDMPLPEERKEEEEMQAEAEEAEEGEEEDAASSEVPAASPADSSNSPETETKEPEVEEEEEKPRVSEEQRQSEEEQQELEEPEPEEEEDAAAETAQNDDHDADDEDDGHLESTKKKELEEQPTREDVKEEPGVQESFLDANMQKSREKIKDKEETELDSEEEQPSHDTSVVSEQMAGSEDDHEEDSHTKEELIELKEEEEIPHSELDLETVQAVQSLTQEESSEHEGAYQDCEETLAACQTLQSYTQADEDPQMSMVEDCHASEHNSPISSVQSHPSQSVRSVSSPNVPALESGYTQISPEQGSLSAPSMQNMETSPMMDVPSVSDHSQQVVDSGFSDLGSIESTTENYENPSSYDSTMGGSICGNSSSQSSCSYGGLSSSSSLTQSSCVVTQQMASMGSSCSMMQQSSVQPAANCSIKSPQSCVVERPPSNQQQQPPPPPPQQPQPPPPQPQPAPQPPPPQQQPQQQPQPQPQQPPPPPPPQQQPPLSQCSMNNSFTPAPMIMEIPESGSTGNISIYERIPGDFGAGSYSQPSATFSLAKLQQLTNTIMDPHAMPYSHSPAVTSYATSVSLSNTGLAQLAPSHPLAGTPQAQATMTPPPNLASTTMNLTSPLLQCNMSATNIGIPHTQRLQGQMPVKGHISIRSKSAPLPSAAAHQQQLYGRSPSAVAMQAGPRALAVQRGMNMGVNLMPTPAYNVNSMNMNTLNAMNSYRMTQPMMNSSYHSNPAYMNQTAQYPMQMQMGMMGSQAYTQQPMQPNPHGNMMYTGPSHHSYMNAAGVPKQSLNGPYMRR", "assay": "Myst3 HAT inhibition assay", "assay_type": "biochemical"}, "MCF-7": {"system": "MCF-7", "assay": "Cell growth inhibition, MCF-7", "assay_type": "cell-based", "conditions": "read-out: EC50, antiproliferative activity", "procedure": "(§3) The anti-proliferation assays for non-breast cancer cells were done using a previously developed assay. In brief, for Kasumi-1 cells, […] were added into 96-well plates and cultured with increasing concentrations of a compound in RPMI-1640 medium supplemented with 20% fetal bovine serum and penicillin (100 U/mL) and streptomycin (100 µg/mL) at 37° C. in a 5% CO2 atmosphere with 100% humidity. For solid tumor cells, 10^5 cells per well were added into 96-well plates and cultured in Dulbecco’s Modified Eagle’s Medium (DMEM) supplemented with 10% fetal bovine serum and penicillin (100 U/mL) and streptomycin (100 µg/mL) overnight. Upon addition of increasing concentrations of a compound, cells were incubated for 5 days. Cell viability was assessed by using an XTT assay kit (Roche) for leukemia cells or an MTT assay (Sigma) for attachment cells. For the breast cancer MCF-7 cells, culture and inhibition assays were performed according to our previous methods in Ref. 25 and 26. Compound EC50 values were calculated from dose response curves using Prism 5.0."}, "MDA-PANC-28": {"system": "MDA-PANC-28", "assay": "Cell growth inhibition, MDA-PANC-28 (MTT)", "assay_type": "cell-based", "conditions": "MDA-PANC-28, 5 days; read-out: EC50, antiproliferative activity", "procedure": "as §3"}, "PANC-1": {"system": "PANC-1", "assay": "Cell growth inhibition, PANC-1 (MTT)", "assay_type": "cell-based", "conditions": "PANC-1, 5 days; read-out: EC50, antiproliferative activity", "procedure": "as §3"}, "Kasumi-1": {"system": "Kasumi-1", "assay": "Cell growth inhibition, Kasumi-1 (XTT)", "assay_type": "cell-based", "conditions": "Kasumi-1, 5 days; read-out: EC50, antiproliferative activity", "procedure": "as §3"}}, "note": "Values joined by “and” are separate entries in the source; they are usually repeats but may differ in a detail not shown here. Equal entries are not always repeated. “Also recorded” adds a separate entry of the source.", "data": [{"compound": "CC(C)(C)c1ccc(-c2cc(CNCC3CCNCC3)sc2-c2ccc(C(C)(C)C)cc2)cc1", "note": "[Compound 12]", "values": [{"measurement": "inhibition of PCAF", "setting": "PCAF; at 20 µM", "value": "< 10", "unit": "%"}, {"measurement": "inhibition of PCAF activity (in words)", "setting": "PCAF; at 20 µM", "value": "did not significantly inhibit"}, {"measurement": "IC50", "setting": "PCAF; read-out: IC50 against PCAF", "value": "> 20", "unit": "µM"}, {"measurement": "IC50", "setting": "human CBP HAT", "value": 1.2, "unit": "µM"}, {"measurement": "cellular acetylation of histone H3K9, H3K18 and H3K27", "setting": "Kasumi-1 leukemia cells", "value": "significantly inhibit; also recorded: inhibited"}, {"measurement": "inhibition of Myst3", "setting": "Myst3; at 20 µM", "value": "< 10", "unit": "%"}, {"measurement": "inhibition of Myst3 activity (in words)", "setting": "Myst3; at 20 µM", "value": "did not significantly inhibit"}, {"measurement": "IC50", "setting": "Myst3; read-out: IC50 against Myst3", "value": "> 20", "unit": "µM"}, {"measurement": "EC50", "setting": "MCF-7", "value": "2.8 µM and ~3 µM"}, {"measurement": "EC50", "setting": "MDA-PANC-28", "value": 2.8, "unit": "µM"}, {"measurement": "EC50", "setting": "PANC-1", "value": 1, "unit": "µM"}, {"measurement": "EC50", "setting": "Kasumi-1", "value": 2.6, "unit": "µM"}]}]}
